Results from ChEMBL document CHEMBL5042539, “Structure-Guided Discovery of the Novel Covalent Allosteric Site and Covalent Inhibitors of Fructose-1,6-Bisphosphate Aldolase to Overcome the Azole Resistance of Candidiasis” (J Med Chem, 2022).
In brackets after ≈: the same amount, converted by molar mass. Activity calls are given as the source filed them. No cut-off for these calls is given here.

What was measured:
Candida albicans [1] = experiment: Antifungal activity against fluconazole resistant Candida albicans 904 incubated for 48 hrs by CLSI based broth microdilution method; assay type: functional
Candida albicans [2] = experiment: Antifungal activity against fluconazole resistant Candida albicans 103 incubated for 48 hrs by CLSI based broth microdilution method; assay type: functional
Candida albicans [3] = experiment: Antifungal activity against fluconazole resistant Candida albicans 7781 incubated for 48 hrs by CLSI based broth microdilution method; assay type: functional
[4] = Inhibition of wild type Candida albicans Fructose-1,6-Bisphosphate Aldolase transfected in Escherichia coli BL21 (DE3) incubated for 3 mins in presence of NADH by spectrophotometric analysis
[5] = Cytotoxicity against human HaCaT cells; assay type: toxicity, cell-based
Candida albicans [6] = experiment: Antifungal activity against Candida albicans SC5314 incubated for 48 hrs by CLSI based broth microdilution method; assay type: functional
Candida albicans [7] = experiment: Binding affinity to Candida albicans Fructose-1,6-Bisphosphate Aldolase assessed as ratio of kinact/Ki incubated for 12 to 40 mins by NADH-linked enzymatic assay; conditions: time 12-40 min
[8] = Binding affinity to Candida albicans Fructose-1,6-Bisphosphate Aldolase assessed as inhibition constant incubated for 12 to 40 mins by NADH-linked enzymatic assay
Candida albicans [9] = experiment: Binding affinity to Candida albicans Fructose-1,6-Bisphosphate Aldolase assessed as Kinact incubated for 12 to 40 mins by NADH-linked enzymatic assay; conditions: time 12-40 min
Candida albicans [10] = experiment: Inhibition of wild type Candida albicans Fructose-1,6-Bisphosphate Aldolase transfected in Escherichia coli BL21 (DE3) at 50 uM incubated for 3 mins in presence of NADH by spectrophotometric analysis relative to control
Candida albicans [11] = experiment: Antifungal activity against azole-resistant Candida albicans 030410 assessed as inhibition of fungal filamentation by measuring reduction in yeast-hypha transition at 32 ug/ml by microscopic analysis; assay type: functional, organism-based; conditions: dose 32.0 µg/ml
Candida albicans [12] = experiment: Antibiofilm activity against azole resistant Candida albicans 0304103 assessed as inhibition of biofilm formation by XTT assay; assay type: functional, organism-based; conditions: dose 0-64 µg/ml
Candida albicans [13] = experiment: Inhibition of wild type Candida albicans Fructose-1,6-Bisphosphate Aldolase transfected in Escherichia coli BL21 (DE3) at 100 uM incubated for 3 mins in presence of NADH by spectrophotometric analysis relative to control

SMILES | MIC80 (Candida albicans [1]) [µg/mL] | MIC80 (Candida albicans [2]) [µg/mL] | MIC80 (Candida albicans [3]) [µg/mL] | IC50 [4] [µM] | MIC80 (Candida albicans [6]) [µg/mL] | inhibition (Candida albicans [10]) [%] | other results
O=c1c2ccccc2[se]n1-c1ccc(F)cc1F | 4 (≈ 12.9 µM) | 4 (≈ 12.9 µM) | 2 (≈ 6.45 µM) | 0.084 | 4 (≈ 12.9 µM) | – | IC50 [5]: > 32 µM
O=c1c2ccccc2[se]n1CCc1ccccc1 | 4 (≈ 13.2 µM) | 4 (≈ 13.2 µM) | 2 (≈ 6.62 µM) | 0.0225 | 4 (≈ 13.2 µM) | – | –
CC(C)c1ccc(-n2[se]c3ccccc3c2=O)cc1 | 4 (≈ 12.6 µM) | 2 (≈ 6.32 µM) | 2 (≈ 6.32 µM) | 0.11 | 4 (≈ 12.6 µM) | – | IC50 [5]: > 32 µM
Nc1ccc(-n2[se]c3ccccc3c2=O)cc1 | 8 (≈ 27.7 µM) | 8 (≈ 27.7 µM) | 8 (≈ 27.7 µM) | 0.0823 | 8 (≈ 27.7 µM) | – | Ratio (Candida albicans [7]): 3560 M⁻¹ s⁻¹; IC50 [5]: > 32 µM; Ki [8]: 0.559 µM; Kinact (Candida albicans [9]): 0.00199 s⁻¹
O=c1c2ccccc2[se]n1-c1nccs1 | 4 (≈ 14.2 µM) | 8 (≈ 28.4 µM) | 8 (≈ 28.4 µM) | 0.113 | 4 (≈ 14.2 µM) | – | –
O=C(NC1CCCCC1)n1sc2ccccc2c1=O | – | – | – | 1.11 | – | – | –
Cc1ccc(-n2[se]c3ccccc3c2=O)cc1 | 4 (≈ 13.9 µM) | 2 (≈ 6.94 µM) | 2 (≈ 6.94 µM) | 0.0133 | 4 (≈ 13.9 µM) | – | IC50 [5]: > 32 µM
COC(=O)/C=C/C(=O)OC | – | – | – | – | – | 0.58 | –
O=c1c2ccccc2[se]n1-c1cccc(C(F)(F)F)c1 | 2 (≈ 5.84 µM) | 4 (≈ 11.7 µM) | 4 (≈ 11.7 µM) | 0.084 | 4 (≈ 11.7 µM) | – | IC50 [5]: > 32 µM
CCCCNC(=O)Nc1ccc(-n2[se]c3ccccc3c2=O)cc1 | 8 (≈ 20.6 µM) | 8 (≈ 20.6 µM) | 8 (≈ 20.6 µM) | 0.093 | 8 (≈ 20.6 µM) | – | –
O=C(c1ccccc1)c1ccc(-n2[se]c3ccccc3c2=O)cc1 | 4 (≈ 10.6 µM) | 4 (≈ 10.6 µM) | 4 (≈ 10.6 µM) | 0.031 | 4 (≈ 10.6 µM) | – | Activity (Candida albicans [11]): Active; Activity (Candida albicans [12]): Dose-Dependent Effect
O=C1c2ccccc2CN1Cc1ccccc1 | > 64 | > 64 | > 64 | > 100 | > 64 | – | inhibition (Candida albicans [13]): < 50%
O=c1c2ccccc2sn1S(=O)(=O)c1ccccc1 | – | – | – | > 50 | – | < 50 | –
O=c1c2ccccc2sn1-c1ccccc1 | – | – | – | 0.241 | – | – | IC50 [5]: > 32 µM
O=C(O)c1ccc(-n2[se]c3ccccc3c2=O)cc1 | 64 (≈ 201 µM) | 64 (≈ 201 µM) | 64 (≈ 201 µM) | 0.0445 | 64 (≈ 201 µM) | – | –
O=c1[nH]sc2ccccc12 | – | – | – | > 5 | – | < 50 | –
CCN(CC)C(=S)SSC(=S)N(CC)CC | – | – | – | – | – | 83 | –
OC(Cn1cncn1)(Cn1cncn1)c1ccc(F)cc1F [FLUCONAZOLE] | > 64 | > 64 | > 64 | – | 0.25 (≈ 0.816 µM) | – | Activity (Candida albicans [11]): inactive; Activity (Candida albicans [12]): Active
CC(=O)Nc1ccc(S(=O)(=O)n2sc3ccccc3c2=O)cc1 | – | – | – | > 50 | – | < 50 | –
O=C(NCc1ccccc1)n1[se]c2ccccc2c1=O | 16 (≈ 48.3 µM) | 8 (≈ 24.2 µM) | 8 (≈ 24.2 µM) | 0.0973 | 16 (≈ 48.3 µM) | – | –
O=c1c2ccccc2[se]n1-c1ccc(Cl)cc1Cl | 4 (≈ 11.7 µM) | 2 (≈ 5.83 µM) | 2 (≈ 5.83 µM) | 0.076 | 4 (≈ 11.7 µM) | – | IC50 [5]: > 32 µM
O=C(O)CCCCC1CCSS1 (configuration not stated) | – | – | – | – | – | 80 | –
CC(C)C[C@H](NC(=O)[C@H](Cc1ccccc1)NC(=O)c1cnccn1)B(O)O | – | – | – | – | – | -0.52 | –
Cn1sc(=O)n(Cc2ccccc2)c1=O | – | – | – | – | – | 53.7 | –
